Results on 15 molecules are retold here after ChEMBL document CHEMBL1129045, “Potential antitumor agents. 24. Synthesis and pharmacological behavior of imidazo[2,1-b]thiazole guanylhydrazones bearing at least one chlorine” (J Med Chem, 1996).

In data set [1] the test system is Mus musculus. The data set is described as follows: Compound was tested in vivo antitumor activity against Ehrlich ascites in mice at 25 mg/kg ip. Format: functional. Particulars: route intraperitoneal.
Data set [2] has as its system HeLa. The data set is described as follows: Compound was tested in vitro for cytotoxicity against HeLa cells. Format: functional, cell-based, Homo sapiens.
The nature of data set [3]: Compound was tested for initial contractile force 0.4+/-0.1 g (% deltabase line value).
Data set [4] can be described thus: Compound was tested for concentration to obtain Emax (microg).
In data set [5] the test system is Mus musculus. The experiment in a line: Compound was tested in vivo antitumor activity against Ehrlich ascites in mice at 100 mg/kg ip. The class given is functional. The conditions noted are these: route intraperitoneal.
Data set [6] relates to Mus musculus. The data set is described as follows: Compound was tested in vivo antitumor activity against Ehrlich ascites in mice at 50 mg/kg ip. The class given is functional. The conditions noted are these: route intraperitoneal.
Data set [7] relates to Mus musculus. The experiment in a line: Compound was tested in vivo antitumor activity against Ehrlich ascites in mice at 12.5 mg/kg ip. The class given is functional. The conditions noted are these: route intraperitoneal.
Data set [8] relates to Mus musculus. The experiment in a line: Compound was tested in vivo antitumor activity against Ehrlich ascites in mice at 1 mg/kg ip. The class given is functional. The conditions noted are these: route intraperitoneal.
For data set [9], the system named is Mus musculus. The data set is described as follows: Compound was tested in vivo antitumor activity against Ehrlich ascites in mice at 6.25 mg/kg ip. The class given is functional. The conditions noted are these: route intraperitoneal.
The species named for data set [10] is Cavia porcellus. The experiment in a line: Positive inotropic activity in isolated guinea pig atria, Concentration producing 50% of the maximal effect. Format: functional.

Values after ≈ are worked out from the molar mass of the structure shown.

For orientation: T/C means the result in the treated group divided by that in the control group, in per cent. As a reminder, the IC50 is the concentration that gives 50% inhibition. Low readings indicate greater potency, high ones weaker potency. In turn, `N=C(N)N/N=C/c1c(-c2ccc(Cl)cc2Cl)nc2sccn12` displayed a T/C in data set [1] of 146%. The IC50 in data set [2] worked out at 2.5 µg/mL (≈ 7.08 µM). In [3], the Delta is given as 100%.
Turning to `COc1cc([S+](C)[O-])ccc1-c1nc2ncccc2[nH]1` (configuration not stated) [SULMAZOLE], the Emax in [4] turned out to be 350 µg. This molecule displayed a Delta in data set [3] of 163%.
Regarding `O=c1[nH]cc(F)c(=O)[nH]1` [FLUOROURACIL], the IC50 in data set [2] was 6 µg/mL (≈ 46.1 µM). Further, the T/C in data set [5] turned out to be 180%.
`N=C(N)N/N=C/c1c(Cl)nc2sc(Cl)cn12` showed an IC50 in data set [2] of over 10 µg/mL. In data set [5], the T/C was 120%. This molecule also had a Delta in [3] of 135%.
The molecule `Cc1csc2nc(Cl)c(/C=N/N=C(N)N)n12` had an IC50 in data set [2] of over 10 µg/mL. This molecule registered a T/C in data set [6] of 106%. The molecule also gave a Delta in data set [3] of 134%.
In data set [7], `N=C(N)N/N=C/c1c(-c2ccc(Cl)c(Cl)c2Cl)nc2sccn12` came in with a T/C of 180%. In data set [2], this molecule gave an IC50 of 2 µg/mL (≈ 5.16 µM).
Consider `Cc1csc2nc(-c3ccc(Cl)cc3)c(/C=N/N=C(N)N)n12`, for which, in data set [1], the T/C was determined as 133%. Also, in [2], the IC50 stood at 2 µg/mL (≈ 6.01 µM). This molecule came in with a Delta in [3] of 115%.
In turn, `COc1cccc2c1C(=O)c1c(O)c3c(c(O)c1C2=O)C[C@@](O)(C(=O)CO)C[C@@H]3O[C@H]1C[C@H](N)[C@H](O)[C@H](C)O1` [DOXORUBICIN] returned an IC50 in data set [2] of 0.005 µg/mL (≈ 0.0092 µM). For the same molecule, the T/C in [8] was determined as 200%.
In [2], `Cc1cn2c(/C=N/N=C(N)N)c(-c3ccc(Cl)cc3)nc2s1` returned an IC50 of 1.5 µg/mL (≈ 4.51 µM). The same molecule showed a T/C in [9] of 166%. Further, in [3], the Delta worked out at 106%.
`N=C(N)N/N=C/c1c(-c2ccc(Cl)cc2)nc2sc(Cl)cn12`: the T/C in data set [7] is given as 166%. In data set [2], this molecule had an IC50 of 0.6 µg/mL (≈ 1.7 µM). Moreover, the Delta in [3] came out at 100%.
The molecule `N=C(N)N/N=C/c1c(-c2ccc(Cl)cc2Cl)nc2n1CCS2` returned an IC50 in [2] of 5 µg/mL (≈ 14.1 µM). In data set [6], this molecule registered a T/C of 200%. In data set [3], this molecule registered a Delta of 119%.
For `Cc1sc2nc(-c3ccc(Cl)cc3)c(/C=N/N=C(N)N)n2c1C`, in data set [7], the T/C is 140%. In data set [2], the midpoint of inhibition, the IC50, lay at 2 µg/mL (≈ 5.77 µM). The same molecule yielded a Delta in data set [3] of 118%.
`Cc1sc2nc(Cl)c(/C=N/N=C(N)N)n2c1C`: the IC50 in [2] was over 10 µg/mL. Also, the T/C in [6] is reported as 100%. In data set [3], this molecule displayed a Delta of 137%.
For `N=C(N)N/N=C/c1c(-c2ccc(Cl)c(Cl)c2Cl)nc2n1CCS2`, it took 2.5 µg/mL (≈ 6.42 µM) to reach half-maximal inhibition in data set [2] (IC50). Further, the T/C in data set [6] is listed as 166%. In data set [3], this molecule came in with a Delta of 111%.
Consider `Cc1cn2c(/C=N/N=C(N)N)c(Cl)nc2s1`, for which, in data set [2], the IC50 is over 10 µg/mL. Also, in data set [10], the EC50 came out at 0.016 mg. Further, the T/C in [6] turned out to be 106%. Further, the Delta in data set [3] was 146%.
